Measurements from article PMC8292346, “Dysfunction of the key ferroptosis-surveilling systems hypersensitizes mice to tubular necrosis during acute kidney injury” (Nature Communications, 2021).
Where “and” joins values, the source holds several entries; their conditions need not be identical. Identical values can stand only once. Entries after “also recorded” stand apart in the source; their conditions may differ.

Columns and labels:
RIPK1 = assay: Western blot of pRIPK1 (S166) in TSZ-treated HT29 cells; assay type: cell-based, human; conditions: Nec-1s 10 µM, Fer-1 1 µM, Nec-1f 10 µM
Description: (§1) To induce necroptosis in a human cell line, HT29 cells were stimulated at the indicated time points with 20 ng/ml human TNFα (Biolegend), 1 μM SMAC-mimetics (Birinapant, Chemietek), and 20 μM zVAD-fmk (Selleckchem, herein referred to as zVAD). For the induction of necroptosis in NIH3T3 cells, cells were incubated with 20 ng/ml TNF-α and 20 μM zVAD for indicated time points. […] Cells were seeded in six-well plates or petri dishes. […] After indicated time points, cells were collected and prepared for flow cytometry, immunoblotting, and/or LDH release assays.
Cells were lysed in ice-cold 10 mM Tris-HCl, pH 7.5, 50 mM NaCl, 1% Triton X-100, 30 mM sodium pyrophosphate, 50 mM NaF, 100 μM Na3VO4, 2 μM ZnCl2, and 1 mM phenylmethylsulfonyl fluoride (PMSF, modified Frackelton buffer) for 30 min on ice. Insoluble material was removed by centrifugation (14 000×g, 30 min, 4 °C). Protein concentration was determined using a commercial Bradford assay kit according to the manufacturer’s instructions (Thermo Fisher). Equal amounts of protein (typically 30 μg per lane) were resolved on a 4%−15% gradient SDS/PAGE gel and transferred to a PVDF membrane (BIO-RAD). Primary antibody incubation was performed for anti-pS166-RIPK1 (Cell Signaling, Cat# 65746, 1:1000 dilution), anti-pS358-MLKL, (Abcam, ab187091, 1:1000 dilution), anti-MLKL (Genetex, GTX107538, 1:1000 dilution) and anti-β-Actin (Cell Signaling, Cat# 3700S, 1:1000 dilution). Secondary antibodies (anti-mouse, HRP-linked antibody, Cell Signaling, Cat# 7076S; anti-rabbit, HRP-linked antibody, Cell Signaling, Cat# 7074S) were applied at concentrations of 1:5.000 (also see Supplementary Table 1 for details). Proteins were then visualized by enhanced chemiluminescence (ECL; Amersham Biosciences).

HT1080 cells [1] = assay: Ferroptosis inducers (FINs)/ferroptocide, 7-AAD/annexin V flow cytometry; assay type: cell-based, human; conditions: for double-negative events (7-AAD/annexin V): alone (DMSO) or with Fer-1 1 µM; for double-negative events (7-AAD/annexin V) / Inhibition of cell death induction by FINs/ferroptocide: Nec-1s 30 µM, Nec-1f 30 µM; for Inhibition of cell death induction by FINs/ferroptocide: Fer-1 1 µM
NIH3T3 cells = assay: Simultaneous ferroptosis and necroptosis (RSL3 plus TZ), 7-AAD/annexin V flow cytometry; assay type: cell-based, murine; conditions: for Rescue from necrosis induced by RSL3 plus TZ: NIH3T3, 16 h
Description: as §1
(§2) Cells were harvested and the pellets were washed twice in PBS and stained with 5 μl of 7-AAD (BD Biosciences) and 5 μl of annexin-V-FITC (BD Biosciences) added to 100 μl annexin-V binding buffer (BD Biosciences). After 15 min, cells were recorded on the LSRII with the FACS Diva 6.1.1 software (BD Biosciences) and subsequently analyzed with the FlowJo v10 software (Tree Star).

HT1080 cells [2] = assay: CellTiter-Glo luminescent cell viability assay (ATP), dose-response; assay type: cell-based, human
Description: Cells were plated in an opaque-walled 96-well plate and treatment with ferroptosis inducers and/or ferroptosis inhibitors was initiated 24 h later. […] Here, the reaction agent was directly added to the wells, mixed on an orbital shaker for 2 min, and then incubated at room temperature for 10 min. The luminescence was detected using a Promega GloMax® instrument.

[3] = system: Mouse cortical tubule cells (MCT); assay: FINs/ferroptocide, 7-AAD/annexin V flow cytometry; assay type: cell-based; conditions: for double-negative events (7-AAD/annexin V): MCT, alone (DMSO) or with Fer-1 1 µM, Nec-1s 30 µM, Nec-1f 30 µM
Description: as §1, §2

CD10-135 cells = assay: FINs/ferroptocide, LDH release assay; assay type: cell-based, human; set-up: LDH release: unit not given here; conditions: for LDH release: Nec-1f 30 µM
[4] = system: primary murine tubular cells; assay: RSL3-induced LDH release of primary kidney tubular cells; assay type: cell-based; conditions: RSL3 14 h; for Effect on RSL3-induced LDH release: primary renal tubular cells
Description: The LDH release of cells or of freshly isolated kidney tubules was measured according to manufacturers’ instructions at indicated time points. In brief, an aliquot of the supernatant was taken and Lysis Solution was added for 45 min to induce maximal LDH release before another aliquot of the supernatant was taken. Subsequently, the supernatants were incubated with CytoTox 96® Reagent for 15 min protected from light at room temperature before adding Stop Solution. Absorbance was measured at 490 nm.
Generation, cell culture, and induction of cell death in primary murine tubular cells. Murine tubular cells were generated by outgrowth from isolated renal tubules (see above). Primary murine tubules were placed in six-well plates containing Dulbecco’s Modified Eagle Medium F-12 Nutrient Mixture without phenol red (DMEM/F12, Thermo Fisher), supplemented with 0.01 mg/ml recombinant human insulin, 5.5 μg/ml human transferrin, 0.005 μg/ml Na2SeO3 (ITS without linoleic acid, Sigma Aldrich), 50 nM hydrocortisone, 100 U/ml penicillin, and 100 μg/ml streptomycin (Pen/Strep, Thermo Fisher). After two days, the outgrown primary murine tubular cells were washed with PBS and a fresh medium was added. When the number of primary murine tubular cells reached approximately 50% confluence, the cells were removed from the six-well plates using Trypsin-EDTA (Thermo Fisher), washed with medium and a Ficoll Paque Plus (Sigma Aldrich) gradient was performed to remove any dead cells, and debris from the murine renal tubules. Cells were washed twice with PBS and seeded in six-well plates with medium. Once the number of grown cells reached approximately 50% confluence, they were washed with PBS and treated with type 2 FIN: RSL3 (also see Supplementary Table 2 for details). After 14 h, medium and cells were collected and prepared for LDH release assay. Images of the treated primary murine tubular cells were obtained using a 20×/0.30 PH1 objective on a Leica DMi1 microscope.

C57Bl/6 N mice = assay: Bilateral kidney ischemia-reperfusion injury, severe model (38 min ischemia), survival; conditions: single dose 2 mg/kg body weight before reperfusion
[5] = HT1080 + Erastin, inhibitor concentration 0.01 (unit not given)
[6] = HT1080 + Erastin, inhibitor concentration 0.1 (unit not given)
[7] = HT1080 + Erastin, inhibitor concentration 1 (unit not given)
[8] = HT1080 + Erastin, inhibitor concentration 10 (unit not given)
[9] = HT1080 + Erastin, inhibitor concentration 30 (unit not given)
[10] = HT1080 + Ferroptocide, inhibitor concentration 0.01 (unit not given)
[11] = HT1080 + RSL3, inhibitor concentration 0.01 (unit not given)
[12] = HT1080 + RSL3, inhibitor concentration 0.1 (unit not given)
[13] = HT1080 + RSL3, inhibitor concentration 1 (unit not given)
[14] = HT1080 + RSL3, inhibitor concentration 10 (unit not given)
[15] = CD10-135, FIN56 alone (FIN) or with Fer-1, Nec-1s
[16] = CD10-135, FINO2 alone (FIN) or with Fer-1, Nec-1s
[17] = CD10-135, RSL3 alone (FIN) or with Fer-1, Nec-1s
[18] = CD10-135, ferroptocide alone (FIN) or with Fer-1, Nec-1s

Row | Structure (SMILES) | Phosphorylation of RIPK1 at S166, western blot (RIPK1) | double-negative events (7-AAD/annexin V) (HT1080 cells [1]; HT1080, 1.13 µM RSL3 6 h) | double-negative events (7-AAD/annexin V) (HT1080 cells [1]; HT1080, 10 µM FIN56 24 h) | double-negative events (7-AAD/annexin V) (HT1080 cells [1]; HT1080, 10 µM FINO2 24 h) | Inhibition of cell death induction by FINs/ferroptocide (HT1080 cells [1]; HT1080) | Rescue from necrosis induced by RSL3 plus TZ (NIH3T3 cells) | ATP luminescence (CellTiterGlo) (HT1080 cells [2]; [5]) [%] | ATP luminescence (CellTiterGlo) (HT1080 cells [2]; [6]) [%] | ATP luminescence (CellTiterGlo) (HT1080 cells [2]; [7]) [%] | ATP luminescence (CellTiterGlo) (HT1080 cells [2]; [8]) [%] | ATP luminescence (CellTiterGlo) (HT1080 cells [2]; [9]) [%] | ATP luminescence (CellTiterGlo) (HT1080 cells [2]; [10]) | ATP luminescence (CellTiterGlo) (HT1080 cells [2]; [11]) | ATP luminescence (CellTiterGlo) (HT1080 cells [2]; [12]) | ATP luminescence (CellTiterGlo) (HT1080 cells [2]; [13]) | ATP luminescence (CellTiterGlo) (HT1080 cells [2]; [14]) | double-negative events (7-AAD/annexin V) ([3]; 1.13 µM RSL3 6 h) | double-negative events (7-AAD/annexin V) ([3]; 5 µM erastin 24 h) | double-negative events (7-AAD/annexin V) ([3]; 10 µM FIN56 24 h) | LDH release (CD10-135 cells; [15]) | other results
1 | CCOC(=O)c1ccc(NC2CCCCC2)c(N)c1 [Fer-1, ferrostatin-1] | RIPK1 S166 phorphorylation was increased | 92.2% and 77.7% and 91.5% and 91% | 88.3% and 93.1% and 90% | 90.8% and 87.7% and 89.4% | inhibition of cell death induction | fail to rescue | 8.302 | 100.351 | 97.0601 | 92.1314 | 88.0064 | 2.0385% and 1.258% | 46.842% and 51.9737% | 61.3859% and 117.078% | 60.0511% and 109.723% | 58.2722% and 113.348% | 96.6% and 93.5% and 69% | 79.5% and 84.2% and 82.8% and 86.9% | 89.5% and 93.6% and 90.5% | 8.38 and 8.509 and 10.9286 | double-negative events (7-AAD/annexin V) (HT1080 cells [1]; HT1080, 5 µM erastin 24 h): 91.8% and 92.7%; double-negative events (7-AAD/annexin V) (HT1080 cells [1]; HT1080, 10 µM ferroptocide 24 h): 71.3% and 77%; Effect on RSL3- and FINO2-induced ferroptosis ([3]; MCT cells): reversed; double-negative events (7-AAD/annexin V) ([3]; 10 µM FINO2 24 h): 96% and 77.1% and 92.8% and 95.9% and 89.7%; double-negative events (7-AAD/annexin V) ([3]; 10 µM ferroptocide 24 h): 86.2% and 85.5% and 72.2% and 89.6% and 67.8% and 73.5%; LDH release (CD10-135 cells; [16]): 8.33 and 7.093 and 7.5109; LDH release (CD10-135 cells; [17]): 6.44 and 3.43; LDH release (CD10-135 cells; [18]): 30.26 and 29.1563; Effect on FIN-induced LDH release (CD10-135 cells; CD10-135 cells): reversed; Effect on the phenotype induced by ferroptocide (CD10-135 cells; CD10-135 cells): reversed the phenotype; Effect on RSL3-induced LDH release [4]: prevented; also recorded: complete reversal of LDH release; Survival after severe renal IRI vs vehicle (Kaplan-Meier, words) (C57Bl/6 N mice): not statistically significant
2 | CN1C(=O)C(Cc2c[nH]c3c(Cl)cccc23)NC1=S (centres unmarked) [Nec-1f] | prevented phosphorylation at S166 in RIPK1 | 88% and 71.9% and 83.1% and 89.5% | 82.6% and 86.1% and 84.4% | 80.8% and 51.5% and 65.9% and 53.8% | inhibition of cell death induction | Nec-1f does; also recorded: maintained cell viability | 6.81 | 7.52 | 8.325 | 21.5066 | 111.285 | 1.591% and 1.035% | 48.1449% and 58.3128% | 48.8384% and 72.7198% | 51.482% and 85.4435% | 49.7032% and 98.9558% | 93.7% and 87.8% and 51.4% | 79.8% and 85.4% and 81.9% and 88.8% | 93.7% and 87.9% and 91.7% | 25.01 and 21.5704 and 29.6875 | Prevention of FINO2-induced ferroptosis (HT1080 cells [1]; HT1080): less effective; 7-AAD/annexin V flow cytometry, source data of bar graph Fig3c (NIH3T3 cells; NIH3T3, RSL3 (1.13 µM) + TZ 16 h with inhibitor): 75.7% and 76% and 68%; ATP luminescence (CellTiterGlo) (HT1080 cells [2]; HT1080 + Ferroptocide, inhibitor concentration 0.1 (unit not given)): 1.25% and 2.131%; ATP luminescence (CellTiterGlo) (HT1080 cells [2]; HT1080 + Ferroptocide, inhibitor concentration 1 (unit not given)): 5.941% and 7.943%; ATP luminescence (CellTiterGlo) (HT1080 cells [2]; HT1080 + Ferroptocide, inhibitor concentration 10 (unit not given)): 11.997% and 7.702%; ATP luminescence (CellTiterGlo) (HT1080 cells [2]; HT1080 + RSL3, inhibitor concentration 30 (unit not given)): 46.9784% and 93.7693%; Effect on FINO2-induced death ([3]; MCT cells): failed to prevent; Effect on RSL3-induced annexin V / 7-AAD positivity ([3]; MCT cells): inhibited; LDH release (CD10-135 cells; [16]): 27.07 and 34.1078 and 34.3349; LDH release (CD10-135 cells; [17]): 36.35 and 26.8291; LDH release (CD10-135 cells; CD10-135, erastin alone (FIN) or with Fer-1, Nec-1s): 25.13 and 17.5 and 32.5; LDH release (CD10-135 cells; [18]): 89.05 and 90.3713; Effect on FIN-induced LDH release (CD10-135 cells; CD10-135 cells): reversed; LDH release ([4]; primary kidney tubular cells, alone (DMSO) or with Fer-1 or Nec-1f 30 µM): 29.82% and 33.38% and 28.13%; Effect on RSL3-induced LDH release [4]: prevented; Survival after severe renal IRI vs vehicle (Kaplan-Meier, words) (C57Bl/6 N mice): significantly higher
